Measurements: article PMC12648443, “Modifications of NU-9, a potent protein aggregation inhibitor. Properties and activity in a cellular model of amyotrophic lateral sclerosis” (Bioorganic chemistry, 2025)

Tests used:
[1] = target: T1, BCRP (Homo sapiens, UniProt Q9UNQ0); assay: MDCKII-BCRP bidirectional permeability / efflux assay; type: in vitro ADME; conditions: for substrate for the BCRP transporter: based on efflux ratio (> 2.0 = substrate); for Papp A→B at 120 min / Papp B→A at 120 min / efflux ratio at 120 min: dog, MDCKII-BCRP, absence of Ko143
T1 construct: host or cells: MDCKII-BCRP (canine MDR1 knockout, transfected with BCRP)
T1 sequence (Q9UNQ0 1-655): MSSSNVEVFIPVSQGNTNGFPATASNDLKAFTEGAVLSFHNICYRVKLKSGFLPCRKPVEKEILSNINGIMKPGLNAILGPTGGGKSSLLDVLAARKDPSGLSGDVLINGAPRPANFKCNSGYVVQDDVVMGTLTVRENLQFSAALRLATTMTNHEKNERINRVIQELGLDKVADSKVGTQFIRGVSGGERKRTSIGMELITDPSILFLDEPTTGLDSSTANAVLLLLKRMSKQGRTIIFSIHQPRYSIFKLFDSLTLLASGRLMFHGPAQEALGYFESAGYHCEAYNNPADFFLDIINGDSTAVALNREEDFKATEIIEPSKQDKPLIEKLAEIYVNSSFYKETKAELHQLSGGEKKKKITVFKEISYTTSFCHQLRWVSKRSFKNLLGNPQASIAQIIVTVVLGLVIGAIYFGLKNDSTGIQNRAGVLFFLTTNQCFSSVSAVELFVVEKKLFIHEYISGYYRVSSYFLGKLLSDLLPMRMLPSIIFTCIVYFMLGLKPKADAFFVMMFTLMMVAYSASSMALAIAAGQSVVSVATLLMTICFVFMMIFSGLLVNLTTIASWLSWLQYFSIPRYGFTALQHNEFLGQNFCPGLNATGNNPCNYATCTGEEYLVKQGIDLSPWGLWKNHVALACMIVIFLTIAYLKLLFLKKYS
Method: For each experiment, the apparent permeability (Papp) for each direction and the efflux ratio (ER) were determined by the equations: Papp(cm/s)=(dQ/dt)/A×Co
Where P(B→A) is the apparent permeability of the compounds from the basal to the apical direction and P(A→B) is the apparent permeability from the apical to basal direction. […] The results are presented as an average of two independent experiments.

[2] = system: PC12-SOD1^G85R YFP cells co-treated with MG132; assay: Viability screening against MG132-induced toxicity, CellTiter-Glo; type: cell-based; conditions: PC12-SOD1^G85R YFP cells co-treated with MG132 and the compounds; read-out: PC12-SOD1^G85R EC50, in vitro viability screening (protection against MG132-induced toxicity)
Method: The HepG2 and HEK293 cells were cultured in DMEM media supplemented with 10 % FBS (heat-inactivated), 1 % Pen-strep, and L-glutamine and incubated at 37 °C in humidified air with 5 % CO2 until 85–90 % confluency. The PC12 Tet-Off-SOD1^G85R YFP cells were maintained as described in 4.2. On the day before the experiments, the cells were transferred to white bottom 96 well plates (Greiner cat. 655,083) at a concentration of 50,000 cells/100 μL of media in each well and incubated overnight at 37 °C. Stock solutions of the compounds (30 mM) in DMSO were prepared and then diluted in media to obtain the six final working solutions starting at 30 μM, and serial dilutions were obtained with the lowest concentration at 0.25 μM. The media were removed and fresh media containing the compounds or the vehicle DMSO (0.1 % v/v) were transferred to the plates containing HepG2 and HEK293 cells and the plates were incubated for 24 or 48 h at 37 °C. The PC12 Tet-Off-SOD1^G85R YFP cells compound treatment was performed as described in section 4.2 and using a 9-point 2-fold serial dilution of the compounds starting at 15 μM and the lowest concentration at 0.05 μM. After incubation, the plates were cooled to room temperature and 25 μL of CellTiter-Glo® solution was added to each well. The plates were loaded into a BioTek Synergy H1 MD plate reader and shaken for 2 min, stabilized for 10 min without shaking, and then the luminescence values were read for each well (luminescence integration step 1 ms). Wells containing media with the vehicle DMSO with or without cells were used as controls to represent, respectively, the maximum viability and the lowest viability (background signal) for the cytotoxicity studies with HepG2 and HEK293 cell lines. The viability values for the assay performed with the PC12 Tet-Off-SOD1^G85R YFP cells were normalised for the vehicle (0.1 % DMSO) and (−)-MG-132 alone treatments, which represented respectively the […] viability for the assay. […]

O=C1CC(=O)CC(/C=C/c2cc(C(F)(F)F)cc(C(F)(F)F)c2)C1 [Compound 6, (E)-5-(3,5-Bis(trifluoromethyl)styryl)cyclohexane-1,3-dione]
substrate for the BCRP transporter [1]: substrates
Papp A→B at 120 min [1]: 0.66 ± 0.18 ×10⁻⁶ cm/s
Papp B→A at 120 min [1]: 31.5 ± 2.73 ×10⁻⁶ cm/s
efflux ratio at 120 min [1]: 47.4
EC50 [2]: 1.98 ± 0.25 µM

CC(C)(Oc1cc(C(F)(F)F)cc(C(F)(F)F)c1)C1CC(=O)CC(=O)C1 [Compound 20, 5-(2-(3,5-bis(trifluoromethyl)phenoxy)propan-2-yl)cyclohexane-1,3-dione]
substrate for the BCRP transporter [1]: substrates
Papp A→B at 120 min [1]: 3.62 ± 0.22 ×10⁻⁶ cm/s
Papp B→A at 120 min [1]: 19.2 ± 0.88 ×10⁻⁶ cm/s
efflux ratio at 120 min [1]: 5.32
EC50 [2]: 2.47 ± 0.15 µM
